Reference: patent US20250339409A1, “USES OF PAN BET INHIBITORS” (VYNE THERAPEUTICS INC., priority 2021, published 2025)
Marks after values point to notes of the source that are not given here.

Test system: anti collagen antibodies induced arthritis (ACAIA)
Assay: Anti collagen antibodies induced arthritis (ACAIA) in mice, intra-articular treatment: paw thickness, arthritis clinical score, body weight;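 note: mouse arthritis induced by IV anti-collagen mAb on day 0 plus IP LPS on day 4, with body weight, caliper paw thickness and 0-4 paw score tracked against a day 0 baseline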
[1] = 0.01 mg/kg IA (Group 5), Baseline
[2] = 0.01 mg/kg IA (Group 5), Day 10
[3] = 0.01 mg/kg IA (Group 5), Day 12
[4] = 0.1 mg/kg IA (Group 4), Baseline

## Cn1cc(-c2cccc(O)c2Oc2ccccc2)c2cc[nH]c2c1=O [BETi1]
[1]
  Clinical score of treated leg (Avg.): 0.00 points
  Paw thickness Avg. Delta untreated -treated: −0.08 mm
  Paw thickness of treated leg (Avg.): 2.06 mm
  Paw thickness of untreated leg (Avg.): 1.98 mm
  Percent change of weight per day (Av): 100.00%
  Δ clinical score untreated -treated, Avg. Delta: 0.00 points
0.01 mg/kg IA (Group 5), Day 3
  Clinical score of treated leg (Avg.): 0.00 points
  Paw thickness Avg. Delta untreated -treated: 0.02 mm
  Paw thickness of treated leg (Avg.): 2.12 mm
  Paw thickness of untreated leg (Avg.): 2.14 mm
  Percent change of weight per day (Av): 99.39%
  Δ clinical score untreated -treated, Avg. Delta: 0.00 points
0.01 mg/kg IA (Group 5), Day 4
  Clinical score of treated leg (Avg.): 0.00 points
  Paw thickness Avg. Delta untreated -treated: 0.00 mm
  Paw thickness of treated leg (Avg.): 2.18 mm
  Paw thickness of untreated leg (Avg.): 2.18 mm
  Percent change of weight per day (Av): 96.62%
  Δ clinical score untreated -treated, Avg. Delta: 0.00 points
0.01 mg/kg IA (Group 5), Day 5
  Clinical score of treated leg (Avg.): 0.00 points
  Paw thickness Avg. Delta untreated -treated: 0.00 mm
  Paw thickness of treated leg (Avg.): 2.18 mm
  Paw thickness of untreated leg (Avg.): 2.17 mm
  Percent change of weight per day (Av): 89.80%
  Δ clinical score untreated -treated, Avg. Delta: 0.00 points
0.01 mg/kg IA (Group 5), Day 6
  Clinical score of treated leg (Avg.): 0.71 points
  Paw thickness Avg. Delta untreated -treated: 0.05 mm
  Paw thickness of treated leg (Avg.): 2.34 mm
  Paw thickness of untreated leg (Avg.): 2.39 mm
  Percent change of weight per day (Av): 88.03%
  Δ clinical score untreated -treated, Avg. Delta: 0.14 points
0.01 mg/kg IA (Group 5), Day 7
  Clinical score of treated leg (Avg.): 1.86 points
  Paw thickness Avg. Delta untreated -treated: 0.02 mm
  Paw thickness of treated leg (Avg.): 2.60 mm
  Paw thickness of untreated leg (Avg.): 2.62 mm
  Percent change of weight per day (Av): 91.87%
  Δ clinical score untreated -treated, Avg. Delta: −0.29 points
0.01 mg/kg IA (Group 5), Day 8
  Clinical score of treated leg (Avg.): 1.86 points
  Paw thickness Avg. Delta untreated -treated: −0.01 mm
  Paw thickness of treated leg (Avg.): 2.64 mm
  Paw thickness of untreated leg (Avg.): 2.63 mm
  Percent change of weight per day (Av): 89.85%
  Δ clinical score untreated -treated, Avg. Delta: −0.14 points
[2]
  Clinical score of treated leg (Avg.): 2.14 points
  Paw thickness Avg. Delta untreated -treated: 0.05 mm
  Paw thickness of treated leg (Avg.): 2.68 mm
  Paw thickness of untreated leg (Avg.): 2.73 mm
  Percent change of weight per day (Av): 89.71%
  Δ clinical score untreated -treated, Avg. Delta: 0.00 points
[3]
  Clinical score of treated leg (Avg.): 2.43 points
  Paw thickness Avg. Delta untreated -treated: −0.20 mm
  Paw thickness of treated leg (Avg.): 3.01 mm
  Paw thickness of untreated leg (Avg.): 2.80 mm
  Percent change of weight per day (Av): 92.75%
  Δ clinical score untreated -treated, Avg. Delta: −1.00 points
[4]
  Clinical score of treated leg (Avg.): 0.00 points
  Paw thickness Avg. Delta untreated -treated: −0.04 mm
  Paw thickness of treated leg (Avg.): 2.06 mm
  Paw thickness of untreated leg (Avg.): 2.01 mm
  Percent change of weight per day (Av): 100.00%
  Δ clinical score untreated -treated, Avg. Delta: 0.00 points
0.1 mg/kg IA (Group 4), Day 3
  Clinical score of treated leg (Avg.): 0.00 points
  Paw thickness Avg. Delta untreated -treated: −0.05 mm
  Paw thickness of treated leg (Avg.): 2.18 mm
  Paw thickness of untreated leg (Avg.): 2.14 mm
  Percent change of weight per day (Av): 101.00%
  Δ clinical score untreated -treated, Avg. Delta: 0.00 points
0.1 mg/kg IA (Group 4), Day 4
  Clinical score of treated leg (Avg.): 0.00 points
  Paw thickness Avg. Delta untreated -treated: 0.04* mm
  Paw thickness of treated leg (Avg.): 2.17 mm
  Paw thickness of untreated leg (Avg.): 2.21 mm
  Percent change of weight per day (Av): 99.30%
  Δ clinical score untreated -treated, Avg. Delta: 0.00 points
0.1 mg/kg IA (Group 4), Day 5
  Clinical score of treated leg (Avg.): 0.00 points
  Paw thickness Avg. Delta untreated -treated: −0.02 mm
  Paw thickness of treated leg (Avg.): 2.17 mm
  Paw thickness of untreated leg (Avg.): 2.15 mm
  Percent change of weight per day (Av): 91.11%
  Δ clinical score untreated -treated, Avg. Delta: 0.00 points
0.1 mg/kg IA (Group 4), Day 6
  Clinical score of treated leg (Avg.): 1.57** points
  Paw thickness Avg. Delta untreated -treated: 0.06 mm
  Paw thickness of treated leg (Avg.): 2.57* mm
  Paw thickness of untreated leg (Avg.): 2.63 mm
  Percent change of weight per day (Av): 88.63%
  Δ clinical score untreated -treated, Avg. Delta: −0.43 points
0.1 mg/kg IA (Group 4), Day 7
  Clinical score of treated leg (Avg.): 2.00 points
  Paw thickness Avg. Delta untreated -treated: 0.05 mm
